From ChEMBL document CHEMBL3638956, “Tetrahydro-pyrazolo[1,5-a]pyrido-pyrimidines as antagonists of serotonin 5-HT6 receptors, methods for the production and use thereof” (2013)

The molecules below were run against 5-hydroxytryptamine receptor 6 (Homo sapiens, UniProt P50406) (assay: Competitive Binding Assay: Activity test of serotonin 5-HT6 receptor antagonists of the general formulas 1, 2 in the setting of competitive binding to serotonin 5-HT6 receptors.).
5-hydroxytryptamine receptor 6, sequence (P50406 whole entry): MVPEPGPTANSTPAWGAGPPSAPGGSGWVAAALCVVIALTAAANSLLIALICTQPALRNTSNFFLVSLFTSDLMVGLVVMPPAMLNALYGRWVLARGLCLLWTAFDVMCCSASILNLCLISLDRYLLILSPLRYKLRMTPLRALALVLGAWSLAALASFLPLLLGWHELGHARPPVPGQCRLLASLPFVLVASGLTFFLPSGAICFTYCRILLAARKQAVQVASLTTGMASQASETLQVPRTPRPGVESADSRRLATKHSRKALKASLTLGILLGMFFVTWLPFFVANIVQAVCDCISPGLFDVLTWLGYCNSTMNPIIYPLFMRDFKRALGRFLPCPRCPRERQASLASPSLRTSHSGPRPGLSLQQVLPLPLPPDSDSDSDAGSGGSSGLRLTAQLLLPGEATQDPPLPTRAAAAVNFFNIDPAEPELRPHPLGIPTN

IC50 | Ki | Compound
13 nM | – | Cc1nn2c3c(cnc2c1S(=O)(=O)c1ccccc1)CN(C)CC3
76.9 nM | 35.7 nM | CSc1nn2c3c(cnc2c1S(=O)(=O)c1ccccc1)CN(C)CC3
– | 2.14 nM | Cc1nn2c3c(cnc2c1S(=O)(=O)c1ccccc1)CNCC3
16.6 nM | 7.7 nM | CSc1nn2c3c(c(C)nc2c1S(=O)(=O)c1ccccc1)CNCC3
